{"source": "ChEMBL document CHEMBL1201862", "about": "“PubChem BioAssay data set” (2004)", "test_in_all_cases": "growth of human tumour cells (NCI), 48 h", "key": {"[1]": {"system": "NCI-H226"}, "[2]": {"system": "UACC-257"}, "[3]": {"system": "KM12"}, "[4]": {"system": "COLO 205"}, "[5]": {"system": "SF-268"}, "[6]": {"system": "K562"}, "[7]": {"system": "RXF 631"}, "[8]": {"system": "UACC-62"}, "[9]": {"system": "786-0"}, "[10]": {"system": "M19-MEL"}, "[11]": {"system": "NCI-H460"}, "[12]": {"system": "A549"}, "[13]": {"system": "CAKI-1"}, "[14]": {"system": "SNB-19"}, "[15]": {"system": "DMS-273"}, "[16]": {"system": "DLD-1"}, "[17]": {"system": "HCT-116"}, "[18]": {"system": "TK-10"}, "[19]": {"system": "HCC 2998"}, "[20]": {"system": "UO-31"}, "[21]": {"system": "RXF 393"}, "[22]": {"system": "HL-60"}, "[23]": {"system": "KM-20L2"}, "[24]": {"system": "SNB-78"}, "[25]": {"system": "CCRF-CEM"}, "[26]": {"system": "OVCAR-8"}, "[27]": {"system": "SK-MEL-2"}, "[28]": {"system": "SK-OV-3"}, "[29]": {"system": "Malme-3M"}, "[30]": {"system": "NCI-H522"}, "[31]": {"system": "A498"}, "[32]": {"system": "HCT-15"}, "[33]": {"system": "ACHN"}, "[34]": {"system": "SF-539"}, "[35]": {"system": "IGROV-1"}, "[36]": {"system": "HOP-62"}, "[37]": {"system": "RPMI-8226"}, "[38]": {"system": "HOP-18"}, "[39]": {"system": "SN12C"}, "[40]": {"system": "SK-MEL-5"}, "[41]": {"system": "SW-620"}, "[42]": {"system": "M14"}, "[43]": {"system": "OVCAR-4"}, "[44]": {"system": "SK-MEL-28"}, "[45]": {"system": "SR"}, "[46]": {"system": "LXFL 529"}, "[47]": {"system": "SNB-75"}, "[48]": {"system": "U-251"}, "[49]": {"system": "MOLT-4"}, "[50]": {"system": "EKVX"}, "[51]": {"system": "DMS-114"}, "[52]": {"system": "OVCAR-5"}, "[53]": {"system": "XF498"}, "[54]": {"system": "NCI-H23"}, "[55]": {"system": "SF-295"}, "[56]": {"system": "HT-29"}, "[57]": {"system": "HOP-92"}}, "note": "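Where inhibition never reached the appropriate level, the endpoint shown equals the highest concentration tested. Otherwise, values were interpolated linearly from a five-concentration, 48-hour dose response in 96-well plates. GI50 is the concentration that inhibits growth by half.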 The source made the active and inactive calls. Cut-off read from the data, not from the text of the source: active = GI50 up to about 1.1 µM and inactive = higher.", "data": [{"compound": "CC(C)O/C=C1\\C(=O)C2(SCCS2)[C@H]2CCCC[C@@H]12", "values": [{"measurement": "GI50", "setting": "[1]", "result": "84.1 µM (inactive)"}, {"measurement": "GI50", "setting": "[2]", "result": "42.6 µM (inactive)"}, {"measurement": "GI50", "setting": "[3]", "result": "35.6 µM (inactive)"}, {"measurement": "GI50", "setting": "[4]", "result": "18.5 µM (inactive)"}, {"measurement": "GI50", "setting": "[5]", "result": "39 µM (inactive)"}, {"measurement": "GI50", "setting": "[6]", "result": "39.8 µM (inactive)"}, {"measurement": "GI50", "setting": "[7]", "result": "52.8 µM (inactive)"}, {"measurement": "GI50", "setting": "[8]", "result": "20.9 µM (inactive)"}, {"measurement": "GI50", "setting": "[9]", "result": "48 µM (inactive)"}, {"measurement": "GI50", "setting": "[10]", "result": "71 µM (inactive)"}, {"measurement": "GI50", "setting": "[11]", "result": "33.7 µM (inactive)"}, {"measurement": "GI50", "setting": "[12]", "result": "37.9 µM (inactive)"}, {"measurement": "GI50", "setting": "[13]", "result": "29.2 µM (inactive)"}, {"measurement": "GI50", "setting": "[14]", "result": "39.5 µM (inactive)"}, {"measurement": "GI50", "setting": "[15]", "result": "37.2 µM (inactive)"}, {"measurement": "GI50", "setting": "[16]", "result": "45.9 µM (inactive)"}, {"measurement": "GI50", "setting": "[17]", "result": "34.4 µM (inactive)"}, {"measurement": "GI50", "setting": "[18]", "result": "43 µM (inactive)"}, {"measurement": "GI50", "setting": "[19]", "result": "66.4 µM (inactive)"}, {"measurement": "GI50", "setting": "[20]", "result": "41.3 µM (inactive)"}, {"measurement": "GI50", "setting": "[21]", "result": "21.8 µM (inactive)"}, {"measurement": "GI50", "setting": "[22]", "result": "24.2 µM (inactive)"}, {"measurement": "GI50", "setting": "[23]", "result": "39.5 µM (inactive)"}, {"measurement": "GI50", "setting": "[24]", "result": "49 µM (inactive)"}, {"measurement": "GI50", "setting": "[25]", "result": "25.5 µM (inactive)"}, {"measurement": "GI50", "setting": "[26]", "result": "36.6 µM (inactive)"}, {"measurement": "GI50", "setting": "[27]", "result": "34.8 µM (inactive)"}, {"measurement": "GI50", "setting": "[28]", "result": "59.7 µM (inactive)"}, {"measurement": "GI50", "setting": "[29]", "result": "32.7 µM (inactive)"}, {"measurement": "GI50", "setting": "[30]", "result": "20.5 µM (inactive)"}, {"measurement": "GI50", "setting": "[31]", "result": "17.7 µM (inactive)"}, {"measurement": "GI50", "setting": "[32]", "result": 33.9, "unit": "µM"}, {"measurement": "GI50", "setting": "[33]", "result": "39.3 µM (inactive)"}, {"measurement": "GI50", "setting": "[34]", "result": "44.3 µM (inactive)"}, {"measurement": "GI50", "setting": "[35]", "result": "49.7 µM (inactive)"}, {"measurement": "GI50", "setting": "[36]", "result": "38 µM (inactive)"}, {"measurement": "GI50", "setting": "[37]", "result": "25.4 µM (inactive)"}, {"measurement": "GI50", "setting": "[38]", "result": "44.6 µM (inactive)"}, {"measurement": "GI50", "setting": "[39]", "result": "68.7 µM (inactive)"}, {"measurement": "GI50", "setting": "[40]", "result": "25.2 µM (inactive)"}, {"measurement": "GI50", "setting": "[41]", "result": "42.7 µM (inactive)"}, {"measurement": "GI50", "setting": "[42]", "result": "42.6 µM (inactive)"}, {"measurement": "GI50", "setting": "[43]", "result": "48.9 µM (inactive)"}, {"measurement": "GI50", "setting": "[44]", "result": "> 100 µM (inactive)"}, {"measurement": "GI50", "setting": "[45]", "result": "48.9 µM (inactive)"}, {"measurement": "GI50", "setting": "[46]", "result": "33.7 µM (inactive)"}, {"measurement": "GI50", "setting": "[47]", "result": "28.8 µM (inactive)"}, {"measurement": "GI50", "setting": "[48]", "result": "40.5 µM (inactive)"}, {"measurement": "GI50", "setting": "[49]", "result": "16.2 µM (inactive)"}]}, {"compound": "COC(=O)[C@@H]1CCCCC[C@H]2C(CO)=C(C)C(=O)C12", "note": "(stereo not given in full)", "values": [{"measurement": "GI50", "setting": "[50]", "result": "> 100 µM (inactive)"}, {"measurement": "GI50", "setting": "[1]", "result": "99.1 µM (inactive)"}, {"measurement": "GI50", "setting": "[2]", "result": "> 100 µM (inactive)"}, {"measurement": "GI50", "setting": "[3]", "result": "> 100 µM (inactive)"}, {"measurement": "GI50", "setting": "[4]", "result": "> 100 µM (inactive)"}, {"measurement": "GI50", "setting": "[5]", "result": "> 100 µM (inactive)"}, {"measurement": "GI50", "setting": "[51]", "result": "> 100 µM (inactive)"}, {"measurement": "GI50", "setting": "[6]", "result": "> 100 µM (inactive)"}, {"measurement": "GI50", "setting": "[8]", "result": "> 100 µM (inactive)"}, {"measurement": "GI50", "setting": "[9]", "result": "> 100 µM (inactive)"}, {"measurement": "GI50", "setting": "[10]", "result": "> 100 µM (inactive)"}, {"measurement": "GI50", "setting": "[11]", "result": "> 100 µM (inactive)"}, {"measurement": "GI50", "setting": "[12]", "result": "> 100 µM (inactive)"}, {"measurement": "GI50", "setting": "[13]", "result": "> 100 µM (inactive)"}, {"measurement": "GI50", "setting": "[14]", "result": "> 100 µM (inactive)"}, {"measurement": "GI50", "setting": "[15]", "result": "> 100 µM (inactive)"}, {"measurement": "GI50", "setting": "[52]", "result": "> 100 µM (inactive)"}, {"measurement": "GI50", "setting": "[16]", "result": "> 100 µM (inactive)"}, {"measurement": "GI50", "setting": "[17]", "result": "> 100 µM (inactive)"}, {"measurement": "GI50", "setting": "[18]", "result": "> 100 µM (inactive)"}, {"measurement": "GI50", "setting": "[19]", "result": "> 100 µM (inactive)"}, {"measurement": "GI50", "setting": "[20]", "result": "> 100 µM (inactive)"}, {"measurement": "GI50", "setting": "[21]", "result": "> 100 µM (inactive)"}, {"measurement": "GI50", "setting": "[53]", "result": "> 100 µM (inactive)"}, {"measurement": "GI50", "setting": "[22]", "result": "> 100 µM (inactive)"}, {"measurement": "GI50", "setting": "[23]", "result": "> 100 µM (inactive)"}, {"measurement": "GI50", "setting": "[54]", "result": "> 100 µM (inactive)"}, {"measurement": "GI50", "setting": "[24]", "result": "> 100 µM (inactive)"}, {"measurement": "GI50", "setting": "[25]", "result": "> 100 µM (inactive)"}, {"measurement": "GI50", "setting": "[26]", "result": "> 100 µM (inactive)"}, {"measurement": "GI50", "setting": "[27]", "result": "> 100 µM (inactive)"}, {"measurement": "GI50", "setting": "[28]", "result": "> 100 µM (inactive)"}, {"measurement": "GI50", "setting": "[29]", "result": "> 100 µM (inactive)"}, {"measurement": "GI50", "setting": "[30]", "result": "> 100 µM (inactive)"}, {"measurement": "GI50", "setting": "[31]", "result": "> 100 µM (inactive)"}, {"measurement": "GI50", "setting": "[32]", "result": "> 100", "unit": "µM"}, {"measurement": "GI50", "setting": "[55]", "result": "> 100 µM (inactive)"}, {"measurement": "GI50", "setting": "[56]", "result": "> 100 µM (inactive)"}, {"measurement": "GI50", "setting": "[33]", "result": "> 100 µM (inactive)"}, {"measurement": "GI50", "setting": "[34]", "result": "> 100 µM (inactive)"}, {"measurement": "GI50", "setting": "[35]", "result": "> 100 µM (inactive)"}, {"measurement": "GI50", "setting": "[36]", "result": "> 100 µM (inactive)"}, {"measurement": "GI50", "setting": "[37]", "result": "> 100 µM (inactive)"}, {"measurement": "GI50", "setting": "[57]", "result": "> 100 µM (inactive)"}, {"measurement": "GI50", "setting": "[38]", "result": "> 100 µM (inactive)"}, {"measurement": "GI50", "setting": "[39]", "result": "> 100 µM (inactive)"}, {"measurement": "GI50", "setting": "[40]", "result": "> 100 µM (inactive)"}, {"measurement": "GI50", "setting": "[41]", "result": "> 100 µM (inactive)"}, {"measurement": "GI50", "setting": "[42]", "result": "> 100 µM (inactive)"}, {"measurement": "GI50", "setting": "[43]", "result": "> 100 µM (inactive)"}, {"measurement": "GI50", "setting": "[44]", "result": "> 100 µM (inactive)"}, {"measurement": "GI50", "setting": "[45]", "result": "> 100 µM (inactive)"}, {"measurement": "GI50", "setting": "[46]", "result": "> 100 µM (inactive)"}, {"measurement": "GI50", "setting": "[47]", "result": "> 100 µM (inactive)"}, {"measurement": "GI50", "setting": "[48]", "result": "> 100 µM (inactive)"}, {"measurement": "GI50", "setting": "[49]", "result": "> 100 µM (inactive)"}]}]}
